The source of these data is patent US9409952B2, “Peptide-compound cyclization method” (Chugai Seiyaku Kabushiki Kaisha, priority 2011, dated 2016).

Data set [1] in a line: Metabolic stability in human hepatic microsome. To be noted: microsomes, pH 7.4; human hepatic microsome, NADPH(+); read-out: CL NADPH(+). Format: in vitro ADME.
The nature of data set [2]: PAMPA (parallel artificial membrane permeability assay). Format: in vitro ADME. To be noted: PAMPA; membrane permeation rate (Pe); 50 mM MOPSO buffer pH 6.5 with 5.0% glycocholic acid, 37° C., 18 hours; read-out: iPAMPA Pe. In outline: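 Artificial membrane was 10% (w/v) egg lecithin plus 0.5% (w/v) cholesterol in dodecane on a PVDF filter. A 10 mM DMSO stock was added at 0.5% (v/v) to donor buffer (50 mM MOPSO, pH 6.5, 5.0% glycocholic acid). After 18 h at 37 °C, LC/MS or LC/UV gave donor and acceptor levels for Pe.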
On the technique in general: PAMPA measures passive passage across an artificial lipid membrane.

Starred links: 1 amine or outer side, 2 acyl side, 3 side chain; linkers in the order of their positions; H or OH if unused. Positions of bridges follow the written chain, without caps; N, C: chain ends. Non-standard residues stand in square brackets, D forms with d. Residues, ends and D or L forms follow the SMILES beside them. *: point of attachment. NMeF = CN[C@@H](Cc1ccccc1)C(=O)O; NMeGABA = CN(CCCC(=O)[*:2])[*:1]; NMeβAla = CN(CCC(=O)[*:2])[*:1]; NMeL = CN[C@@H](CC(C)C)C(=O)O; NMeV = CN[C@H](C(=O)O)C(C)C; NMeA = CN[C@@H](C)C(=O)O; Piperidide = C1CCN(*)CC1; dNMeA = CN[C@H](C)C(=O)O; Sar = CNCC(=O)O

For the compound `CC(C)C[C@@H]1NC(=O)[C@H](C(C)C)NC(=O)[C@H](Cc2ccccc2)NC(=O)CCN(C)C(=O)C[C@@H](C(=O)N2CCCCC2)NC(=O)[C@H](CC(C)C)N(C)C(=O)[C@H](CC(C)C)NC(=O)[C@H](C(C)C)N(C)C(=O)[C@H](CC(C)C)NC(=O)[C@H]([C@@H](C)O)NC(=O)CN(C)C1=O` [DP-472] ([NMeβAla]FVL[Sar]TL[NMeV]L[NMeL]D-Piperidide; lactam N-11), the microsomal CLint at 1 uM in data set [1] was found to be 52 µL/min/mg. The Papp at 18 hours, 50 µM in data set [2] is 24 ×10⁻⁶ cm/s.

Take `CC(C)C[C@H]1C(=O)N(C)[C@@H](C(C)C)C(=O)N(C)[C@@H](C)C(=O)N[C@H](C(=O)N2CCCCC2)CC(=O)N(C)CCC(=O)N[C@@H]([C@@H](C)O)C(=O)N[C@@H](C)C(=O)N(C)[C@@H](C)C(=O)N(C)[C@@H](Cc2ccccc2)C(=O)N(C)[C@@H](CC(C)C)C(=O)N[C@@H](Cc2ccccc2)C(=O)N1C` [DP-473] ([NMeβAla]TA[NMeA][NMeF][NMeL]F[NMeL][NMeV][NMeA]D-Piperidide; lactam N-11): the microsomal CLint at 1 uM in data set [1] is 82 µL/min/mg. In addition, the Papp at 18 hours, 50 µM in data set [2] was found to be 14 ×10⁻⁶ cm/s.

Take `CC(C)C[C@H]1C(=O)N[C@@H](C)C(=O)N(C)[C@@H](Cc2ccccc2)C(=O)N(C)[C@@H](C(C)C)C(=O)N[C@@H](Cc2ccccc2)C(=O)N(C)[C@@H](C)C(=O)N(C)[C@@H](C)C(=O)N[C@H](C(=O)N2CCCCC2)CC(=O)N(C)[C@H](C)C(=O)N[C@@H]([C@@H](C)O)C(=O)N(C)[C@@H](C)C(=O)N1C` [DP-474] ([dNMeA]T[NMeA][NMeL]A[NMeF][NMeV]F[NMeA][NMeA]D-Piperidide; lactam N-11): in data set [1], the microsomal CLint at 1 uM is 129 µL/min/mg. Also, the Papp at 18 hours, 50 µM in data set [2] turned out to be 13 ×10⁻⁶ cm/s.

`CC[C@H](C)[C@@H]1NC(=O)[C@H](CC(C)C)NC(=O)[C@@H](C)N(C)C(=O)C[C@@H](C(=O)N2CCCCC2)NC(=O)[C@H](C(C)C)N(C)C(=O)[C@H](CC(C)C)NC(=O)[C@H](Cc2ccccc2)NC(=O)[C@H]([C@@H](C)O)NC(=O)[C@H](CC(C)C)NC(=O)CN(C)C(=O)[C@H](C)NC1=O` [DP-475] ([dNMeA]LIA[Sar]LTFL[NMeV]D-Piperidide; lactam N-11): in data set [1], the microsomal CLint at 1 uM is 35 µL/min/mg. Further, the Papp at 18 hours, 50 µM in data set [2] stood at 16 ×10⁻⁶ cm/s.

Regarding `CC(C)C[C@H]1C(=O)N(C)[C@@H](C)C(=O)N[C@@H]([C@@H](C)O)C(=O)N(C)[C@@H](C)C(=O)N(C)[C@@H](CC(C)C)C(=O)N(C)[C@@H](Cc2ccccc2)C(=O)N[C@H](C(=O)N2CCCCC2)CC(=O)N(C)[C@H](C)C(=O)N(C)[C@@H](C)C(=O)N[C@@H](C)C(=O)N(C)[C@@H](C)C(=O)N1C` [DP-476] ([dNMeA][NMeA]A[NMeA][NMeL][NMeA]T[NMeA][NMeL][NMeF]D-Piperidide; lactam N-11), in data set [1], the microsomal CLint at 1 uM stood at 10 µL/min/mg. Also, in data set [2], the Papp at 18 hours, 50 µM was found to be 2.8 ×10⁻⁶ cm/s.

Consider `CC[C@H](C)[C@@H]1NC(=O)[C@H](Cc2ccccc2)N(C)C(=O)CN(C)C(=O)[C@H]([C@@H](C)O)NC(=O)[C@H](CC(C)C)NC(=O)[C@H](CC(C)C)N(C)C(=O)[C@H](C)N(C)C(=O)CCCN(C)C(=O)C[C@@H](C(=O)N2CCCCC2)NC(=O)[C@H](Cc2ccccc2)N(C)C(=O)[C@H](C(C)C)N(C)C1=O` [DP-477] ([NMeGABA][NMeA][NMeL]LT[Sar][NMeF]I[NMeV][NMeF]D-Piperidide; lactam N-11), for which the microsomal CLint at 1 uM in data set [1] is 30 µL/min/mg. Besides, the Papp at 18 hours, 50 µM in data set [2] was 29 ×10⁻⁶ cm/s.

For the compound `CC[C@H](C)[C@@H]1NC(=O)[C@H](CC(C)C)NC(=O)[C@H](C(C)C)NC(=O)[C@H](CC(C)C)N(C)C(=O)[C@H](CC(C)C)NC(=O)[C@H](Cc2ccccc2)NC(=O)[C@H]([C@@H](C)O)NC(=O)[C@H](C)N(C)C(=O)[C@H](CC(C)C)NC(=O)[C@H](C)N(C)C(=O)C[C@@H](C(=O)N2CCCCC2)NC1=O` [DP-478] ([NMeA]L[NMeA]TFL[NMeL]VLID-Piperidide; lactam N-11), the microsomal CLint at 1 uM in data set [1] came to 50 µL/min/mg. Moreover, the Papp at 18 hours, 50 µM in data set [2] was 18 ×10⁻⁶ cm/s.

Turning to `CC(C)C[C@@H]1NC(=O)[C@H](CC(C)C)N(C)C(=O)[C@H](C(C)C)N(C)C(=O)[C@H](C)NC(=O)CN(C)C(=O)[C@H](Cc2ccccc2)NC(=O)[C@H]([C@@H](C)O)NC(=O)[C@H](CC(C)C)N(C)C(=O)[C@H](C)N(C)C(=O)C[C@@H](C(=O)N2CCCCC2)NC(=O)[C@H](CC(C)C)N(C)C1=O` [DP-479] ([NMeA][NMeL]TF[Sar]A[NMeV][NMeL]L[NMeL]D-Piperidide; lactam N-11), the microsomal CLint at 1 uM in data set [1] amounted to 183 µL/min/mg. Besides, in data set [2], the Papp at 18 hours, 50 µM was determined as 46 ×10⁻⁶ cm/s.

Consider `CC(C)C[C@H]1C(=O)N(C)[C@@H](C)C(=O)N[C@H](C(=O)N2CCCCC2)CC(=O)N(C)[C@@H](C)C(=O)N(C)[C@@H](C)C(=O)N[C@@H](C)C(=O)N(C)[C@@H](C)C(=O)N(C)[C@@H](CC(C)C)C(=O)N(C)[C@@H](Cc2ccccc2)C(=O)N[C@@H]([C@@H](C)O)C(=O)N(C)[C@@H](C)C(=O)N1C` [DP-480] ([NMeA][NMeA]A[NMeA][NMeL][NMeF]T[NMeA][NMeL][NMeA]D-Piperidide; lactam N-11), for which the microsomal CLint at 1 uM in data set [1] was 15 µL/min/mg. Moreover, the Papp at 18 hours, 50 µM in data set [2] was 6.6 ×10⁻⁶ cm/s.

In the case of `CC[C@H](C)[C@@H]1NC(=O)[C@H](C)N(C)C(=O)C[C@@H](C(=O)N2CCCCC2)NC(=O)[C@H](Cc2ccccc2)NC(=O)[C@H](CC(C)C)N(C)C(=O)[C@H](C(C)C)N(C)C(=O)[C@H](C)N(C)C(=O)[C@H]([C@@H](C)O)NC(=O)[C@H](Cc2ccccc2)N(C)C(=O)[C@H](C)N(C)C(=O)[C@H](CC(C)C)N(C)C1=O` [DP-481] ([NMeA]I[NMeL][NMeA][NMeF]T[NMeA][NMeV][NMeL]FD-Piperidide; lactam N-11), in data set [1], the microsomal CLint at 1 uM stood at 82 µL/min/mg. Also, the Papp at 18 hours, 50 µM in data set [2] amounted to 31 ×10⁻⁶ cm/s.

Take `CC(C)C[C@H]1C(=O)N(C)[C@@H](C)C(=O)N(C)[C@@H](Cc2ccccc2)C(=O)N[C@@H]([C@@H](C)O)C(=O)N(C)CC(=O)N(C)[C@@H](Cc2ccccc2)C(=O)N(C)[C@@H](CC(C)C)C(=O)N[C@@H](C)C(=O)N[C@H](C(=O)N2CCCCC2)CC(=O)N(C)[C@@H](C)C(=O)N(C)[C@@H](C)C(=O)N1C` [DP-482] ([NMeA][NMeA][NMeL][NMeA][NMeF]T[Sar][NMeF][NMeL]AD-Piperidide; lactam N-11): the microsomal CLint at 1 uM in data set [1] was 11 µL/min/mg. The Papp at 18 hours, 50 µM in data set [2] worked out at 3.7 ×10⁻⁶ cm/s.

With `CC[C@H](C)[C@@H]1NC(=O)[C@H](C)NC(=O)C[C@@H](C(=O)N(C)[C@@H](Cc2ccccc2)C(=O)N[C@@H](C)C(=O)N2CCCCC2)NC(=O)[C@H](Cc2ccccc2)NC(=O)[C@H](C)N(C)C(=O)[C@H](C(C)C)N(C)C(=O)CN(C)C(=O)[C@H]([C@@H](C)O)NC(=O)[C@H](Cc2ccccc2)N(C)C(=O)[C@H](CC(C)C)N(C)C(=O)[C@H](CC(C)C)N(C)C1=O` [DP-483] (AI[NMeL][NMeL][NMeF]T[Sar][NMeV][NMeA]FD[NMeF]A-Piperidide; lactam N-11), in data set [1], the microsomal CLint at 1 uM worked out at 23 µL/min/mg. Moreover, in data set [2], the Papp at 18 hours, 50 µM worked out at 18 ×10⁻⁶ cm/s.

Take `CC(C)C[C@@H]1NC(=O)[C@H](Cc2ccccc2)N(C)C(=O)[C@H](C(C)C)N(C)C(=O)CN(C)C(=O)[C@H]([C@@H](C)O)NC(=O)[C@H](Cc2ccccc2)N(C)C(=O)[C@H](CC(C)C)N(C)C(=O)[C@H](CC(C)C)N(C)C(=O)[C@H](C)NC(=O)[C@@H](C(C)C)NC(=O)C[C@@H](C(=O)N(C)[C@@H](Cc2ccccc2)C(=O)N[C@@H](C)C(=O)N2CCCCC2)NC1=O` [DP-484] ([dV]A[NMeL][NMeL][NMeF]T[Sar][NMeV][NMeF]LD[NMeF]A-Piperidide; lactam N-11): the microsomal CLint at 1 uM in data set [1] was 29 µL/min/mg. The Papp at 18 hours, 50 µM in data set [2] turned out to be 13 ×10⁻⁶ cm/s.

With `CC[C@H](C)[C@@H]1NC(=O)[C@H](C(C)C)N(C)C(=O)[C@H](C)N(C)C(=O)[C@H]([C@@H](C)O)NC(=O)[C@@H](C)N(C)C(=O)C[C@@H](C(=O)N2CCCCC2)NC(=O)[C@H](C)NC(=O)[C@H](Cc2ccccc2)N(C)C(=O)CN(C)C(=O)[C@H](CC(C)C)N(C)C1=O` [DP-485] ([dNMeA]T[NMeA][NMeV]I[NMeL][Sar][NMeF]AD-Piperidide; lactam N-10), the microsomal CLint at 1 uM in data set [1] was determined as 45 µL/min/mg. Further, the Papp at 18 hours, 50 µM in data set [2] was 5.9 ×10⁻⁶ cm/s.

As for `CC[C@H](C)[C@@H]1NC(=O)[C@H](C)N(C)C(=O)[C@H](CC(C)C)N(C)C(=O)CCCN(C)C(=O)C[C@@H](C(=O)N2CCCCC2)NC(=O)[C@H](C)N(C)C(=O)[C@H](Cc2ccccc2)N(C)C(=O)[C@H]([C@@H](C)O)NC(=O)[C@H](Cc2ccccc2)N(C)C(=O)[C@H](CC(C)C)N(C)C1=O` [DP-487] ([NMeGABA][NMeL][NMeA]I[NMeL][NMeF]T[NMeF][NMeA]D-Piperidide; lactam N-10), in data set [1], the microsomal CLint at 1 uM turned out to be 386 µL/min/mg. In addition, in data set [2], the Papp at 18 hours, 50 µM is 24 ×10⁻⁶ cm/s.

As for `CC(C)C[C@H]1C(=O)N(C)[C@@H](C)C(=O)N(C)[C@@H](CC(C)C)C(=O)N[C@H](C(=O)N2CCCCC2)CC(=O)N(C)[C@@H](C)C(=O)N(C)[C@@H](Cc2ccccc2)C(=O)N[C@@H]([C@@H](C)O)C(=O)N(C)[C@@H](C)C(=O)N(C)[C@@H](CC(C)C)C(=O)NCC(=O)N1C` [DP-489] ([NMeA][NMeF]T[NMeA][NMeL]G[NMeL][NMeA][NMeL]D-Piperidide; lactam N-10), the microsomal CLint at 1 uM in data set [1] worked out at 59 µL/min/mg. The Papp at 18 hours, 50 µM in data set [2] was determined as 24 ×10⁻⁶ cm/s.

Consider `CC[C@H](C)[C@@H]1NC(=O)[C@H](CC(C)C)N(C)C(=O)[C@H](C)N(C)C(=O)[C@H]([C@@H](C)O)NC(=O)[C@H](C)N(C)C(=O)[C@H](C(C)C)N(C)C(=O)[C@H](Cc2ccccc2)NC(=O)CCN(C)C(=O)C[C@@H](C(=O)N(C)[C@@H](Cc2ccccc2)C(=O)N[C@@H](C)C(=O)N2CCCCC2)NC(=O)[C@H](C)N(C)C1=O` [DP-490] ([NMeβAla]F[NMeV][NMeA]T[NMeA][NMeL]I[NMeA]D[NMeF]A-Piperidide; lactam N-10), for which the microsomal CLint at 1 uM in data set [1] stood at 27 µL/min/mg. Besides, the Papp at 18 hours, 50 µM in data set [2] is 11 ×10⁻⁶ cm/s.
